From patent US20230111310A1, “CARBOXYLIC ACID DERIVATIVE-SUBSTITUTED IMINO ARYL COMPOUND, PREPARATION METHOD THEREFOR, HERBICIDAL COMPOSITION AND USE THEREOF” (Qingdao Kingagroot Chemical Compound Co., Ltd., priority 2020, published 2023)
Where two headings read alike, the source gives them in different places.

Experiments:
Type in all cases: in vivo
Eclipta prostrate = assay: Composition activity test, post-emergence foliage spray; conditions: for pest or weed control at 225 g/ha: B 225 g a.i./ha; for pest or weed control at 150 g/ha: B 150 g a.i./ha
Description: (§1) are as follows, and the others were purchased from reagent companies. The technical materials were all dissolved in acetone and diluted with an aqueous solution containing 0.1% emulsifier Tween-80. The dilution is performed as required.
(§2) Weeds were cultivated by a pot culture method. […] Full and uniform weed seeds were selected, soaked in warm water at 25° C. for 6 hours, and germinated in a 28° C. biochemical incubator (darkness). The weed seeds that had just germinated were evenly placed on the surface of the soil and then covered with 0.5-1 cm soil according to the sizes of seeds.
(§3) The culture was carried out in a controllable sunlight greenhouse at 20 to 30° C., in natural light, and relative humidity of 57% to 72%.
(§4) 3 pots with 20 weed seeds per pot were treated in one treatment with 4 replications per treatment.
(§5) The agents were used for only once in the experiment. In the stage of weeds with 1.5-2 leaves, the weeds were thinned out to maintain 10 weeds per pot and 30 weeds for each treatment, then continued to be cultured to Conyza Canadensis 10 cm in height, other weeds 3-4 leaves stage and treated.
(§6) The well-cultured weeds were evenly placed on a platform with an area of 0.5 m^2, and a solution of agents was sprayed on the stems and leaves thereof by the 3WP-2000-type walking spray tower at a dosage of 450 kg/ha and at a spray pressure of 0.3 MPa. After all the solution was sprayed, the valve was closed. After 30 seconds, the door of the spray tower was opened, and the nutritional bowl was taken out. Then the valve was opened, and the spray tube was cleaned by spraying 50 ml of water. After the treatment, the weeds were routinely cultured in a greenhouse.
(§7) A method for investigating absolute number was employed, wherein whole seedlings of survival weeds were cut off with a blade along the soil surface, and the fresh weight of the weeds was weighed with an analytical balance. For dead weeds, the fresh weight thereof was zero.
(§8) The investigation was performed after 21 days of the treatment for only once.
(§9) An optimum ratio of the two active ingredients was determined by the actual control effect, characteristics of herbicides, and balance of a corresponding formula. Wherein, in the formula, X represented the fresh weight inhibition rate of the active ingredient A in a dosage of P, and Y represented the fresh weight inhibition rate of the active ingredient B in a dosage of Q. The statistical results were shown in the table 6.

Veronica didyma Tenore [1] = assay: as above
Description: as §1, §2, §3, §4, §5, §6, §7, §8, §9

Abutilon theophrasti [2] = assay: Weeding effect in post-emergence stage; conditions: Dose 15 g/ha; level of fresh weight growth control rate
Procedure, shortened: (§10)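 Post-emergence spray tower; 2-3 leaf plants (2 wk after sowing, soil pots, greenhouse). Formulation: acetone, Tween 80, methyl oleate EC 1.5 liter/ha as synergist, water. Rates 500–7.5 g/ha. Growth control rate read at 3 wk; n=3, averaged.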

Alopecurus japonicus = assay: Weeding effect in post-emergence stage; conditions: Dose 15 g/ha; level of fresh weight growth control rate
Procedure, shortened: as §10

Digitaria sanguinalis = assay: Weeding effect in post-emergence stage; conditions: Dose 15 g/ha; level of fresh weight growth control rate
Procedure, shortened: as §10

Eleusine indica = assay: Weeding effect in post-emergence stage; conditions: Dose 15 g/ha; level of fresh weight growth control rate
Procedure, shortened: as §10

Setaria viridis [3] = assay: Weeding effect in post-emergence stage; conditions: Dose 15 g/ha; level of fresh weight growth control rate
Procedure, shortened: as §10

Echinochloa crusgalli = assay: Weeding effect in post-emergence stage; conditions: Dose 15 g/ha; level of fresh weight growth control rate
Procedure, shortened: as §10

Abutilon theophrasti [4] = assay: Weeding effect in pre-emergence stage; conditions: 30 g/ha, 4 weeks
Procedure, shortened: (§11)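 Pots were kept in the greenhouse for 4 weeks and then rated for growth control on activity-level criteria. Spraying took place immediately after sowing at application rates of 500 to 7.5 g/ha, using an acetone/tween 80 formulation diluted with water, on seeds under 0.5-2 cm of soil.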

Amaranthus retroflexus = assay: Weeding effect in pre-emergence stage; conditions: 30 g/ha, 4 weeks
Procedure, shortened: as §11

Capsella bursa-pastoris = assay: Weeding effect in pre-emergence stage; conditions: 30 g/ha, 4 weeks
Procedure, shortened: as §11

Descurainia sophia = assay: Weeding effect in pre-emergence stage; conditions: 30 g/ha, 4 weeks
Procedure, shortened: as §11

Setaria viridis [5] = assay: Weeding effect in pre-emergence stage; conditions: 30 g/ha, 4 weeks
Procedure, shortened: as §11

Veronica didyma Tenore [6] = assay: Weeding effect in pre-emergence stage; conditions: 30 g/ha, 4 weeks
Procedure, shortened: as §11

Peanut = assay: Pre-emergence stage, crop selectivity; conditions: 30 g/ha, 4 weeks
Procedure, shortened: as §11

Soybeans = assay: Pre-emergence stage, crop selectivity; conditions: 30 g/ha, 4 weeks
Procedure, shortened: as §11

corn = assay: Pre-emergence stage, crop selectivity; conditions: 30 g/ha, 4 weeks
Procedure, shortened: as §11

cotton = assay: Pre-emergence stage, crop selectivity; conditions: 30 g/ha, 4 weeks
Procedure, shortened: as §11

[7] = Eclipta, foliar, read-out: Control effect (%) of B applied alone (B)
[8] = foliar, Eclipta prostrate, foliage, read-out: Control effect (%) of B applied alone (B)

CCOC(=O)Nc1cccc(OC(=O)Nc2ccccc2)c1 [desmedipham]
pest or weed control at 300 g/ha (Eclipta prostrate; [7]): 16.2%

Cc1ccc(NC(=O)N(C)C)cc1Cl [chlorotoluron]
pest or weed control at 225 g/ha (Eclipta prostrate; [8]): 24.5%

O=C(O)COc1ccc(Cl)cc1Cl [2,4-dichlorophenoxy acetic acid]
pest or weed control at 150 g/ha (Veronica didyma Tenore [1]; Veronica polita, foliar, read-out: Control effect (%) of B applied alone (B)): 32.6%

COc1c(Cl)ccc(-c2nc(C(=O)OCc3ccccc3)c(Cl)c(N)c2F)c1F [florpyrauxifen benzyl]
Control effect (%) of B applied alone (B) (Veronica didyma Tenore [1]; Veronica didyma Tenore, foliage, B 15 g a.i./ha): 50.3%

COC(=O)c1nc(-c2ccc(Cl)c(OC)c2F)cc(N)c1Cl [halauxifen-methyl]
Control effect (%) of B applied alone (B) (Veronica didyma Tenore [1]; Veronica didyma Tenore, foliage, B 3 g a.i./ha): 35.6%

CC(C)N1C(=O)c2ccccc2NS1(=O)=O [bentazone]
pest or weed control at 150 g/ha (Eclipta prostrate; [8]): 30.2%

O=C(O)c1nc(Cl)ccc1Cl [clopyralid]
pest or weed control at 45 g/ha (Veronica didyma Tenore [1]; Veronica polita, foliar, Veronica didyma Tenore, foliage, B 45 g a.i./ha, read-out: Control effect (%) of B applied alone (B)): 28.9%

CC(C)c1nn(C(=O)NC(C)(C)C)c(=O)n1N [amicarbazone]
Control effect (%) of B applied alone (B) (Eclipta prostrate; Eclipta prostrate, foliage, B 60 g a.i./ha): 43.7%

CSc1nnc(C(C)(C)C)c(=O)n1N [metribuzin]
pest or weed control at 15 g/ha (Eclipta prostrate; foliar, Eclipta prostrate, foliage, B 15 g a.i./ha, read-out: Control effect (%) of B applied alone (B)): 36.3%

CCC(=O)Nc1ccc(Cl)c(Cl)c1 [propanil]
pest or weed control at 300 g/ha (Eclipta prostrate; foliar, Eclipta prostrate, foliage, B 300 g a.i./ha, read-out: Control effect (%) of B applied alone (B)): 21.7%

CCNc1nc(Cl)nc(NC(C)(C)C)n1 [terbuthylazine]
pest or weed control at 150 g/ha (Eclipta prostrate; [8]): 31.7%

COC(=O)Nc1cccc(OC(=O)Nc2cccc(C)c2)c1 [phenmedipham]
pest or weed control at 300 g/ha (Eclipta prostrate; [7]): 20.8%

N#Cc1cc(Br)c(O)c(Br)c1 [bromoxynil]
pest or weed control at 60 g/ha (Eclipta prostrate; foliar, Eclipta prostrate, foliage, B 60 g a.i./ha, read-out: Control effect (%) of B applied alone (B)): 41.2%

CCC(C)n1c(=O)[nH]c(C)c(Br)c1=O (stereo not drawn) [bromacil]
pest or weed control at 450 g/ha (Eclipta prostrate; [7]): 28.4%

CC[C@@H](O/N=C/c1cc(-n2c(=O)cc(C(F)(F)F)n(C)c2=O)c(F)cc1Cl)C(=O)OC [315(R)]
Weeding effect in post-emergence stage, Abutilon theophrasti (Abutilon theophrasti [2]): 5 (Level 5: growth control rate is above 85%) | Weeding effect in post-emergence stage, Alopecurus japonicus (Alopecurus japonicus): 5 (Level 5: growth control rate is above 85%) | Weeding effect in post-emergence stage, Digitaria sanguinalis (Digitaria sanguinalis): 5 (Level 5: growth control rate is above 85%) | Weeding effect in post-emergence stage, Eleusine indica (Eleusine indica): 5 (Level 5: growth control rate is above 85%) | Weeding effect in post-emergence stage, Setaria viridis (Setaria viridis [3]): 5 (Level 5: growth control rate is above 85%) | Weeding effect in post-emergence stage, Echinochloa crusgalli (Echinochloa crusgalli): 5 (Level 5: growth control rate is above 85%) | activity level (growth control rate) Abutilon theophrasti (Abutilon theophrasti [4]): 5 (Level 5: growth control rate is above 85%) | activity level (growth control rate) Amaranthus retroflexus (Amaranthus retroflexus): 5 (Level 5: growth control rate is above 85%) | activity level (growth control rate) Capsella bursa-pastoris (Capsella bursa-pastoris): 5 (Level 5: growth control rate is above 85%) | activity level (growth control rate) Descurainia sophia (Descurainia sophia): 5 (Level 5: growth control rate is above 85%) | activity level (growth control rate) Setaria viridis (Setaria viridis [5]): 5 (Level 5: growth control rate is above 85%) | activity level (growth control rate) Veronica didyma Tenore (Veronica didyma Tenore [6]): 5 (Level 5: growth control rate is above 85%) | plant damage level Peanut (Peanut): 0 (Level 0: growth control rate is less than 5%) | plant damage level Soybeans (Soybeans): 0 (Level 0: growth control rate is less than 5%) | plant damage level Corn (corn): 0 (Level 0: growth control rate is less than 5%) | plant damage level Cotton (cotton): 0 (Level 0: growth control rate is less than 5%)

CC(C)=NOC(=O)[C@@H](C)O/N=C/c1cc(-n2c(=O)cc(C(F)(F)F)n(C)c2=O)c(F)cc1Cl [248(R)]
Weeding effect in post-emergence stage, Abutilon theophrasti (Abutilon theophrasti [2]): 5 (Level 5: growth control rate is above 85%) | Weeding effect in post-emergence stage, Alopecurus japonicus (Alopecurus japonicus): 5 (Level 5: growth control rate is above 85%) | Weeding effect in post-emergence stage, Digitaria sanguinalis (Digitaria sanguinalis): 5 (Level 5: growth control rate is above 85%) | Weeding effect in post-emergence stage, Eleusine indica (Eleusine indica): 5 (Level 5: growth control rate is above 85%) | Weeding effect in post-emergence stage, Setaria viridis (Setaria viridis [3]): 5 (Level 5: growth control rate is above 85%) | Weeding effect in post-emergence stage, Echinochloa crusgalli (Echinochloa crusgalli): 5 (Level 5: growth control rate is above 85%) | activity level (growth control rate) Abutilon theophrasti (Abutilon theophrasti [4]): 5 (Level 5: growth control rate is above 85%) | activity level (growth control rate) Amaranthus retroflexus (Amaranthus retroflexus): 5 (Level 5: growth control rate is above 85%) | activity level (growth control rate) Capsella bursa-pastoris (Capsella bursa-pastoris): 5 (Level 5: growth control rate is above 85%) | activity level (growth control rate) Descurainia sophia (Descurainia sophia): 5 (Level 5: growth control rate is above 85%) | activity level (growth control rate) Setaria viridis (Setaria viridis [5]): 5 (Level 5: growth control rate is above 85%) | activity level (growth control rate) Veronica didyma Tenore (Veronica didyma Tenore [6]): 5 (Level 5: growth control rate is above 85%) | plant damage level Peanut (Peanut): 0 (Level 0: growth control rate is less than 5%) | plant damage level Soybeans (Soybeans): 0 (Level 0: growth control rate is less than 5%) | plant damage level Corn (corn): 0 (Level 0: growth control rate is less than 5%) | plant damage level Cotton (cotton): 0 (Level 0: growth control rate is less than 5%)

CC(C)c1ccc(NC(=O)N(C)C)cc1 [isoproturon]
pest or weed control at 225 g/ha (Eclipta prostrate; [8]): 33.9%

CCOC(=O)OC(C)OC(=O)[C@@H](C)O/N=C/c1cc(-n2c(=O)cc(C(F)(F)F)n(C)c2=O)c(F)cc1Cl (stereo partly drawn) [246(R)]
Weeding effect in post-emergence stage, Abutilon theophrasti (Abutilon theophrasti [2]): 5 (Level 5: growth control rate is above 85%) | Weeding effect in post-emergence stage, Alopecurus japonicus (Alopecurus japonicus): 5 (Level 5: growth control rate is above 85%) | Weeding effect in post-emergence stage, Digitaria sanguinalis (Digitaria sanguinalis): 5 (Level 5: growth control rate is above 85%) | Weeding effect in post-emergence stage, Eleusine indica (Eleusine indica): 5 (Level 5: growth control rate is above 85%) | Weeding effect in post-emergence stage, Setaria viridis (Setaria viridis [3]): 5 (Level 5: growth control rate is above 85%) | Weeding effect in post-emergence stage, Echinochloa crusgalli (Echinochloa crusgalli): 5 (Level 5: growth control rate is above 85%) | activity level (growth control rate) Abutilon theophrasti (Abutilon theophrasti [4]): 5 (Level 5: growth control rate is above 85%) | activity level (growth control rate) Amaranthus retroflexus (Amaranthus retroflexus): 5 (Level 5: growth control rate is above 85%) | activity level (growth control rate) Capsella bursa-pastoris (Capsella bursa-pastoris): 5 (Level 5: growth control rate is above 85%) | activity level (growth control rate) Descurainia sophia (Descurainia sophia): 5 (Level 5: growth control rate is above 85%) | activity level (growth control rate) Setaria viridis (Setaria viridis [5]): 5 (Level 5: growth control rate is above 85%) | activity level (growth control rate) Veronica didyma Tenore (Veronica didyma Tenore [6]): 5 (Level 5: growth control rate is above 85%) | plant damage level Peanut (Peanut): 0 (Level 0: growth control rate is less than 5%) | plant damage level Soybeans (Soybeans): 0 (Level 0: growth control rate is less than 5%) | plant damage level Corn (corn): 0 (Level 0: growth control rate is less than 5%) | plant damage level Cotton (cotton): 0 (Level 0: growth control rate is less than 5%)
